The subject of this assay is HPV-positive TC-1 tumor cells. The assay can be described thus: TC-1 tumor model, tumor growth and survival after single treatment. The format is in vivo, B6 mice. How it is done:
FIG. 1 provides a survival plot: B6 mice (n=4 per group) were implanted with 50,000 TC1 tumor cells subcutaneously. On day 10, group 2 received tumor vaccine R-DOTAP−HPV mix formulation (100 μl) (ASP3-250-HPV mix) containing HPV antigens (ASP3/R-DOTAP (S.C.) in the opposite flank of the tumor and group 3 mice received intra-tumoral injection of R-DOTAP (50 μl of 6 mg/ml) (RDOTAP (IT)).
Three groups of mice were injected on day 0 with 50,000 HPV-positive TC-1 tumor cells. In order for a stringent test of antitumor effect, the tumors were allowed to grow to a size of 6-7 mm prior to treatment on Day 10. The aggressively growing tumors reached a size of 10 mm by Day 14. Group 1 mice (Naïve) were left untreated and had to be sacrificed by Day 16. The mice in Group 2 (ASP3/R-DOTAP S.C.) were treated with one subcutaneous injection of R-DOTAP+HPV16(49-57) antigen injection on the opposite flank to the tumor. The mice in Group 3 (R-DOTAP IT) were treated with a single intra-tumoral injection of R-DOTAP only. The tumor sizes and survival of all 3 groups were monitored.
FIG. 1 provides a survival plot: B6 mice (n=4 per group) were implanted with 50,000 TC1 tumor cells subcutaneously.

For `CCCCCCCC/C=C\CCCCCCCC(=O)OC[C@@H](C[N+](C)(C)C)OC(=O)CCCCCCC/C=C\CCCCCCCC` [R-DOTAP, (R)-1,2-dioleoyl-3-trimethylammonium propane], the “antitumor efficacy (survival plot, FIG. 1)” value (intra-tumoral R-DOTAP only, 50 μl of 6 mg/ml, no antigen, compared with sub-cutaneous R-DOTAP+antigen) was “comparable antitumor efficacy”. For the same compound, the tumor growth rates entry (tumors 6-7 mm at single treatment on Day 10, data not shown) is “dramatic slowing of the tumor growth rates”.

These data come from US20220160867A1, “METHODS AND COMPOSITIONS COMPRISING CATIONIC LIPIDS FOR IMMUNOTHERAPY BY DIRECT TUMOR INJECTION” (PDS Biotechnology Corporation, priority 2020, published 2022).
